A short description of this data set: gradient 5% acetonitrile 3 min, to 50% in 2 min, to 85% in 15 min, held 3 min, 100 µL/min. Particulars: column: Zorbax Extend-C18 2.1 x 50 mm; eluents: water / acetonitrile, 0.1% formic acid. The method in brief: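 Pure standards were analyzed in mixtures of ~100 molecules using HPLC coupled to a quadrupole time-of-flight mass spectrometer, in both positive and negative ionization mode. Separation used a Zorbax Extend-C18 column (2.1 × 50 mm, 1.8 μm) at 100 μL/min, with water and acetonitrile each containing 0.1% formic acid. Dead and dwell volumes were 40 μL and 900 μL, and data were collected over 3 months. Retention time was read from computationally picked adduct peaks, each inspected manually.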
`CCOc1ccccc1NC(=O)N1CCCC(Cn2c(C)nc3cccnc32)C1` (centres undefined) returned an RP-LC retention time of 618 s. Regarding `CCOC(=O)C(=CNc1ccccc1Cl)C(=O)OCC`, the RP-LC retention time turned out to be 1130 s. The molecule `O=C(c1ccc(F)c(F)c1)N1CCC2(CC1)N=C(c1cccc(Br)c1)NO2` returned an RP-LC retention time of 935 s. For `CCOC(=O)CNC(=O)NCC(c1cccnc1)c1c[nH]c2ccccc12` (centres undefined), the RP-LC retention time was 598 s. Next, `Clc1ccc(-c2nc3cnccn3c2Nc2ccc3c(c2)OCCO3)cc1`: 891 s. In turn, `Cc1ccc(-c2nc(Nc3ccc(Br)cc3)sc2CC(=O)O)c(C)c1` yielded an RP-LC retention time of 1090 s. Take `CCOc1ccc(NC(=O)Cc2csc3nc(-c4ccc(C)c(C)c4)cn23)cc1`: the RP-LC retention time was determined as 903 s. For the molecule `O=C(O)c1nnn(Cc2ccccc2F)c1-c1cccnc1`, the RP-LC retention time amounted to 633 s. `CC1=C(c2ccccc2)S(=O)(=O)N=C1N1CCC(NC(=O)C2CCC2)CC1` gave an RP-LC retention time of 753 s. Molecule `CC(C)NC(=O)c1ccc(OCC2CCN(C(=O)c3ccccc3Cl)CC2)cc1` showed an RP-LC retention time of 820 s. Molecule `CSC[C@H]1O[C@@H](n2cnc3c(N)ncnc32)[C@@H](O)[C@H]1O` came in with an RP-LC retention time of 575 s.

Turning to `COCC1CN(C)CC12CCN(S(=O)(=O)c1ccc(F)c(C)c1)CC2` (centres undefined), the RP-LC retention time stood at 659 s. `Cc1nnc(N2CCCC(C(=O)NCCC(C)C)C2)c2nn(-c3ccc(Cl)cc3)c(C)c12` (centres undefined) displayed an RP-LC retention time of 783 s. The figure for `O=c1c2sccc2n(Cc2nc(-c3ccc(Cl)c(F)c3)no2)c(=O)n1-c1ccc(F)cc1` is 1080 s; for `CC(C)NC[C@H](O)COc1cccc2[nH]ccc12` it is 603 s; for `O=C1c2ccc(O)cc2O[C@H](c2cc(O)c(O)c(O)c2)[C@H]1O` it is 617 s. Turning to `CCN(CC)S(=O)(=O)c1ccc(-n2cnc(C(=O)Nc3cc(C(C)(C)C)ccc3O)c2)cc1`, the RP-LC retention time was found to be 1060 s. In the case of `CCC(c1cccs1)N1C(=O)[C@H]2CN(S(=O)(=O)c3ccccc3C)C[C@H]2C1=O` (some centres undefined), the RP-LC retention time amounted to 1020 s. Next, `CC(=O)N1CCc2cc(N3CC(C(=O)NCc4cccnc4)CC3=O)ccc21` (centres undefined): 557 s.

As to `O=C(Cn1ccn2nc(-c3ccc(F)cc3)c(CO)c2c1=O)Nc1ccc2c(c1)CCC2`, the RP-LC retention time amounted to 908 s. The figure for `O=C(Cn1nc(N2CCOCC2)c2ccccc2c1=O)Nc1ccc(F)cc1Cl` is 816 s; for `CC(C)CNC(=O)N1CCCC(CCc2nnc(-c3cnccn3)o2)C1` (centres undefined) it is 697 s; for `COc1ccc(Cl)cc1S(=O)(=O)N1CCc2nn(CC3CC3)c(=O)n2CC1` it is 800 s.

`Cc1csc(-c2cc(S(=O)(=O)NC(C)(C)C)c(C)n2C)n1` gave an RP-LC retention time of 914 s.

As to `Cc1ccc(NC(=O)Cn2cnc3nc(N4CCC(C(=O)NC5CC5)CC4)sc3c2=O)c(F)c1`, the RP-LC retention time turned out to be 655 s. Consider `Cc1cccc(C(=O)N2CC(C)C(=O)Nc3ccccc32)c1` (centres undefined), for which the RP-LC retention time was determined as 688 s. In the case of `Cc1nc2cc(N3CC(C(=O)Nc4cccc(Br)c4)CC3=O)ccc2o1` (centres undefined), the RP-LC retention time is 805 s. The figure for `CC(C)CNC(=O)N1CCc2nc(OCC3CC3)ccc2C1` is 848 s.

In the case of `CC(C)c1nnc(-c2ccc(S(=O)(=O)N3CCN(C(C)C)CC3)o2)o1`, the RP-LC retention time was determined as 608 s. Consider `O=C(CCn1nnc2cc(-c3noc(-c4ccc(Cl)cc4)n3)ccc21)N1CCCC1`, for which the RP-LC retention time was 1010 s. Next, `Cc1cc(F)ccc1NC(=O)c1nnn(-c2ccc(F)cc2)c1-c1cccnc1`: 915 s; `COc1ccccc1CCc1nc(-c2ccc3oc(C)nc3c2)no1`: 1210 s; `COCCN1C(=O)CCc2c(C)nc(-c3cccnc3)nc21`: 614 s. The figure for `O=c1c2scc(-c3ccc(Br)cc3)c2ncn1Cc1cccnc1` is 775 s; for `CCSc1nc2ncc(-c3ccnc(N4CCN(C)CC4)n3)c(C)n2n1` it is 808 s. Next, `COc1ccc2[nH]cc(CN3CCC([C@H]4[C@@H](OC)C(=O)N4C(C)C)CC3)c2c1`: 623 s. In turn, `CCn1c(=O)sc2cc(S(=O)(=O)N3CCC(C(=O)Nc4ccc(C)cn4)CC3)ccc21` registered an RP-LC retention time of 735 s. The figure for `Cc1noc(-c2ccc(OC3CN(C(=O)NCCc4ccccc4)C3)cc2)n1` is 880 s. Molecule `Cc1ccc(NC(=O)C2(C)Oc3cccnc3N(C(C)C)C2=O)c(C)c1` (centres undefined) displayed an RP-LC retention time of 1040 s.

Molecule `CCc1ccccc1NC(=O)C(=O)c1cn(CC(=O)N2CCCC2)c2ccccc12` displayed an RP-LC retention time of 644 s.

`CC(C)(C)NC(=O)N(Cc1ccsc1)CC(F)(F)F` showed an RP-LC retention time of 925 s. The molecule `Cn1cc(C(=O)NCCc2ccccc2)c(S(=O)(=O)N2CCSCC2)n1` registered an RP-LC retention time of 1030 s. The figure for `COC(=O)CCSCc1ccc(-c2onc(C)c2NC(=O)OC(C)c2ccccc2Cl)cc1` (centres undefined) is 1150 s; for `CCCCN1C(=O)C(CC(=O)N2CCOCC2)Sc2ncccc21` (centres undefined) it is 708 s; for `CC(NC(=O)C(=O)N1CCOCC1)C(c1cccs1)N1CCN(c2ccccc2F)CC1` (centres undefined) it is 692 s. Next, `Cc1ccc(CNC(=O)CCc2nnc3c4cc(-c5ccccc5)nn4ccn23)cc1C`: 815 s; `CCOCCCNC(=O)C1CCCN(c2ccc(=O)n(-c3ccc(C)c(Cl)c3)n2)C1` (centres undefined): 826 s; `COc1cccc(NC(=O)Cn2c(=O)c(CCC(=O)NCC(C)C)nc3ccccc32)c1`: 798 s.

On to `CCS(=O)(=O)N(C)C1CCc2nn(Cc3ccccc3)c(=O)n2CC1` (centres undefined), for which the RP-LC retention time came out at 710 s.

The molecule `COc1ccc(-c2nnc(-c3cccc(S(=O)(=O)N4CCCC4)c3)o2)cc1` yielded an RP-LC retention time of 963 s. For `CN1C(=O)c2cc(C(=O)NCc3cccc(Br)c3)nn2CC1(C)C(=O)NC1CCCC1` (centres undefined), the RP-LC retention time was 807 s.

Consider `O=C(NC1CCN(c2cc(-c3ccc(F)cc3)[nH]n2)C1)c1ccccc1Br` (centres undefined), for which the RP-LC retention time stood at 668 s. The molecule `COc1ccccc1C(=O)Nc1cccn2nc(C3CCC3)nc12` had an RP-LC retention time of 1140 s. The figure for `c1ccc(-c2nc3nc4c(c(Nc5ccc6c(c5)OCCO6)n3n2)CCC4)cc1` is 961 s.

Regarding `COc1ccc(OC)c(NC(=O)N(C)CCc2noc(-c3ccccc3)n2)c1`, the RP-LC retention time was found to be 918 s. `Cc1noc(C)c1-c1ccc(S(=O)(=O)NCc2ccco2)cc1` registered an RP-LC retention time of 842 s. Consider `CN1c2cc(C(=O)NCc3ccncc3)ccc2C(=O)N2CCCCC21` (centres undefined), for which the RP-LC retention time worked out at 586 s. Next, `CCOCCOC1CCN(C(=O)c2sccc2C)CC1`: 741 s.

The molecule `CC(C)CCN1CCC(N2CCN(C(=O)CC(C)C)CC2)C1=O` (centres undefined) came in with an RP-LC retention time of 579 s. Regarding `O=C([C@@H]1C[C@H](F)CN1S(=O)(=O)c1cc(F)cc(F)c1)N1CCCCC1`, the RP-LC retention time is 837 s. Next, `C[C@H](NC(=O)[C@H](Cc1ccccc1)NC(=O)OCc1ccccc1)C(=O)CF`: 824 s.

`Cc1nc(N(C)C)cc(N2CCN(C(=O)c3cccc(Br)c3)CC2)n1` showed an RP-LC retention time of 656 s. The figure for `COC(=O)c1cc(S(=O)(=O)N2CCCC2C(=O)Nc2ccc(F)c(Cl)c2)cn1C` (centres undefined) is 978 s; for `COc1cccc(OC)c1C(=O)Nc1ccc2c(c1)Sc1ncccc1C(=O)N2C(C)C` it is 883 s. For `CCn1cc(S(=O)(=O)N2C[C@H]3CN(S(=O)(=O)c4cccc(F)c4)C[C@@H](C2)O3)cn1`, the RP-LC retention time amounted to 815 s. Next, `Cc1cccc(OCc2nc(C)c(C(=O)N3CCC(C(N)=O)CC3)s2)c1`: 962 s; `COc1ccccc1N1CCN(c2cc(SCC(=O)Nc3ccc(C(C)C)cc3)ncn2)CC1`: 1140 s. The figure for `O=C(NCCc1ccccc1)C(=O)NCc1cccnc1` is 567 s; for `CCOC(=O)c1ccc(NC(=O)Cn2nc3c(Oc4ccccc4)nccn3c2=O)cc1` it is 852 s; for `Cc1nc2cc(-c3noc(/C=C/c4ccccc4)n3)ccc2o1` it is 1140 s. Next, `CCCC(=O)Nc1nc(-c2ccc3c(c2)NC(=O)C(C)O3)cs1` (centres undefined): 806 s; `O=C(NCc1ccco1)C1CCN(c2ncccc2-c2nc(-c3ccc(Cl)cc3)no2)CC1`: 1090 s; `CCc1ccc(-c2noc(Cn3c(=O)n(-c4ccc(OC)cc4)c(=O)c4sccc43)n2)cc1`: 1150 s. `O=C(NCCc1c[nH]c2ccc(F)cc12)c1ccc(F)cc1-n1cnnn1`: the RP-LC retention time came out at 756 s.

`CCCN1C(=O)CN(S(C)(=O)=O)CC1(C)C(=O)NCc1ccc(Cl)cc1` (centres undefined) displayed an RP-LC retention time of 758 s. The figure for `COCCCNC(=O)Nc1ccc2c(c1)CCN2S(=O)(=O)c1ccccc1` is 762 s.

`Cc1cc(CC(=O)N2CCCn3ccnc3C2C2CCCC2)on1` (centres undefined) registered an RP-LC retention time of 587 s.

The molecule `CCc1noc(NC(C)=O)c1-c1ccc(OC)c(S(=O)(=O)NCc2ccc(C)cc2)c1` registered an RP-LC retention time of 802 s.

Consider `CCc1ccc(C2=C(C)C(N3CCC(C(=O)NC)CC3)=NS2(=O)=O)cc1`, for which the RP-LC retention time was 738 s.

Source of the values: the METLIN SMRT retention time set (Domingo-Almenara et al. 2019).
